From patent publication US5200409A, “Composition and use of substituted 1,3-dithiolo-and 1,4-dithiinoquinoxalines as an antimicrobial” (The Dow Chemical Company, priority 1992, dated 1993)
≈ marks a conversion by molar mass, not a printed value. Like-named read-outs stand apart in the source and are kept apart here.

Legend:
[1] = system: Aureobasidium pullulan (Ap); experiment: Minimum inhibitory concentration (MIC) in malt yeast agar; format: cell-based, Aureobasidium pullulan ATCC 16622; details: malt yeast agar; 30° C.; 48 hours for yeast and 72 hours for fungi; read-out: Minimum Inhibitory Concentration, Ap
Procedure: (§1) The minimum inhibitory concentration (MIC) for the compounds listed in Table I is determined for 9 bacteria, using nutrient agar: and 7 yeast and fungi, using malt yeast agar. A one percent solution of the test compound is prepared in a mixture of acetone and water. Nutrient agar is prepared at pH 6.8, representing a neutral medium, and at pH 8.2, representing an alkaline medium. The nutrient agars are prepared by adding 23 g of nutrient agar to one-liter of deionized water. In addition, the alkaline medium is prepared by adjusting a 0.04M solution of N-[tris-(hydroxymethyl)methyl]-glycine buffered deionized water with concentrated sodium hydroxide to a pH of […]. Malt yeast agar is prepared by adding 3 g yeast extract and 45 g malt agar per liter of deionized water. The specific agar is dispensed in 30 ml aliquots into 25×200 mm test tubes, capped and autoclaved for 15 minutes at 115° C. The test tubes containing the agar are cooled in a water bath until the temperature of the agar is 48° C. Then, an appropriate amount of the one percent solution of the test compound is added (except in the controls where no compound is added) to the respective test tubes so that the final concentrations are 500, 250, 100, 50, 25, 10, 5, 2.5, 1.0 and zero parts per million of the test compound in the agar, thus having a known concentration of test compound dispersed therein. The contents of the test tubes are then transferred to respective petri plates. After drying for 24 hours, the petri plates containing nutrient agar are inoculated with bacteria and those containing malt yeast agar are inoculated with yeast and fungi.
(§2) The inoculation with the yeast and fungi is accomplished as follows. Cultures of yeast and fungi are incubated for seven days on malt yeast agar at 30° C. These cultures are used to prepare suspensions by the following procedure. A suspension of each organism is prepared by adding 10 ml of sterile saline and 10 microliters of octylphenoxy polyethoxy ethanol to the agar slant of yeast or fungi. The sterile saline/octylphenoxy polyethoxy ethanol solution is then agitated with a sterile swab to suspend the microorganism grown on the slant. Each resulting suspension is diluted into sterile saline (1 part suspension: 9 parts sterile saline). Aliquots of these dilutions are placed in individual wells of Steer's Replicator and petri plates inoculated as previously described. The petri plates are incubated at 30° C. and read after 48 hours for yeast and 72 hours for fungi.
(§3) Table II lists the bacteria, yeast and fungi used in the MIC test described above along with their respective American Type Culture Collection (ATCC) identification numbers.

[2] = system: Penicillium chrysogenum (Pc); experiment: as above; format: cell-based, Penicillium chrysogenum ATCC 9480; details: malt yeast agar; 30° C.; 72 hours for fungi; read-out: Minimum Inhibitory Concentration, Pc
Procedure: as §1, §2, §3

[3] = system: Saccharomyces cerevisiae (Sc); experiment: as above; format: cell-based, Saccharomyces cerevisiae ATCC 4105; details: malt yeast agar, 30° C., 48 hours for yeast, read-out: Minimum Inhibitory Concentration, Sc
Procedure: as §1, §2, §3

Bacillus subtilis (Bs) = experiment: Minimum inhibitory concentration (MIC) in nutrient agar; format: cell-based, Bacillus subtilis ATCC 8473
Procedure: as §1
(§4) The inoculation with bacteria is accomplished by using the following procedure. Twenty-four hour-cultures of each of the bacteria are prepared by incubating the respective bacteria in tubes containing nutrient broth for 24 hours at 30° C. in a shaker. Dilutions of each of the 24 hour-cultures are made so that nine separate suspensions (one for each of the nine test bacteria) are made, each containing 10^8 colony forming units (CFU) per ml of suspension of a particular bacteria. Aliquots of 0.3 ml of each of the bacterial suspensions are used to fill the individual wells of Steer's Replicator. For each microbial suspension, 0.3 ml was used to fill three wells (i.e., three wells of 0.3 ml each) so that for the nine different bacteria, 27 wells are filled. The Steer's Replicator is then used to inoculate both the neutral and alkaline pH nutrient agar petri plates.
(§5) The inoculated petri plates are incubated at 30° C. for 48 hours and then read to determine if the test compound which is incorporated into the agar prevented growth of the respective bacteria.
as §3

[4] = system: Staphylococcus aureus (Sa); experiment: as above; format: cell-based, Staphylococcus aureus ATCC 6538
Procedure: as §1, §4, §5, §3

Trichoderma viride (Tv) = experiment: Minimum inhibitory concentration (MIC) in malt yeast agar; format: cell-based, Trichoderma viride ATCC 8678; details: read-out: Minimum Inhibitory Concentration, Tv
Procedure: as §1, §2, §3

Proteus vulgaris (Pv) = experiment: Minimum inhibitory concentration (MIC) in nutrient agar; format: cell-based, Proteus vulgaris ATCC 881
Procedure: as §1, §4, §5, §3

[5] = system: Pseudomonas aeruginosa (Pa); experiment: as above; format: cell-based, Pseudomonas aeruginosa ATCC 10145; details: 48 hours
Procedure: as §1, §4, §5, §3

[6] = system: Enterobacter aerogenes (Ea); experiment: as above; format: cell-based, Enterobacter aerogenes ATCC 13048; details: Klebsiella aerogenes, 48 h
Procedure: as §1, §4, §5, §3

Candida albicans (Ca) = experiment: Minimum inhibitory concentration (MIC) in malt yeast agar; format: cell-based, Candida albicans ATCC 10231; details: malt yeast agar; 30° C.; 48 hours for yeast; read-out: Minimum Inhibitory Concentration, Ca
Procedure: as §1, §2, §3

[7] = system: Salmonella choleraesuis (Sc); experiment: Minimum inhibitory concentration (MIC) in nutrient agar; format: cell-based, Salmonella choleraesuis ATCC 10708; details: Salmonella enterica
Procedure: as §1, §4, §5, §3

Escherichia coli (Ec) = experiment: as above; format: cell-based, Escherichia coli ATCC 11229
Procedure: as §1, §4, §5, §3

[8] = system: Pseudomonas aeruginosa (PRD-10); experiment: as above; format: cell-based, Pseudomonas aeruginosa ATCC 15442; details: 48 h
Procedure: as §1, §4, §5, §3

[9] = system: Klebsiella pneumoniae (Kp); experiment: as above; format: cell-based, Klebsiella pneumoniae ATCC 8308
Procedure: as §1, §4, §5, §3

Fusarium oxysporum (Fo) = experiment: Minimum inhibitory concentration (MIC) in malt yeast agar; format: cell-based, Fusarium oxysporum ATCC 48112; details: read-out: Minimum Inhibitory Concentration, Fo
Procedure: as §1, §2, §3

Aspergillus niger (An) = experiment: as above; format: cell-based, Aspergillus niger ATCC 16404; details: malt yeast agar; 30° C.; 72 hours for fungi; read-out: Minimum Inhibitory Concentration, An
Procedure: as §1, §2, §3

[10] = pH 6.8, nutrient agar, 30° C., 48 hours, read-out: Minimum Inhibitory Concentration, Bs
[11] = pH 8.2, nutrient agar, 30° C., 48 hours, read-out: Minimum Inhibitory Concentration, Bs
[12] = pH 6.8, nutrient agar, 30° C., 48 hours, read-out: Minimum Inhibitory Concentration, Sa
[13] = pH 8.2, nutrient agar, 30° C., 48 hours, read-out: Minimum Inhibitory Concentration, Sa
[14] = malt yeast agar, 30° C., 72 hours for fungi
[15] = 48 h, pH 8.2, read-out: Minimum Inhibitory Concentration, Pv
[16] = pH 6.8, read-out: Minimum Inhibitory Concentration, Ea
[17] = pH 8.2, read-out: Minimum Inhibitory Concentration, Ea
[18] = 48 h, pH 8.2, read-out: Minimum Inhibitory Concentration, Sc
[19] = 48 h, pH 8.2, read-out: Minimum Inhibitory Concentration, Ec
[20] = pH 6.8, read-out: Minimum Inhibitory Concentration, PRD
[21] = pH 8.2, read-out: Minimum Inhibitory Concentration, PRD
[22] = 48 h, pH 8.2, read-out: Minimum Inhibitory Concentration, Kp
[23] = 48 h, pH 6.8, read-out: Minimum Inhibitory Concentration, Pv
[24] = 48 h, pH 6.8, read-out: Minimum Inhibitory Concentration, Sc
[25] = 48 h, pH 6.8, read-out: Minimum Inhibitory Concentration, Ec
[26] = pH 6.8, nutrient agar, 30° C., 48 hours, read-out: Minimum Inhibitory Concentration, Kp

Structure (SMILES) | MIC [1] [µg/mL] | MIC [2] [µg/mL] | MIC [3] [µg/mL] | MIC (Bacillus subtilis (Bs); [10]) [µg/mL] | MIC (Bacillus subtilis (Bs); [11]) [µg/mL] | MIC [4, 12] [µg/mL] | MIC [4, 13] [µg/mL] | MIC (Trichoderma viride (Tv); [14]) [µg/mL] | MIC (Proteus vulgaris (Pv); [15]) [µg/mL] | MIC ([5]; pH 6.8, 30° C.) [µg/mL] | MIC ([5]; pH 8.2, 30° C.) [µg/mL] | MIC [6, 16] [µg/mL] | MIC [6, 17] [µg/mL] | MIC (Candida albicans (Ca)) [µg/mL] | MIC [7, 18] [µg/mL] | MIC (Escherichia coli (Ec); [19]) [µg/mL] | MIC [8, 20] [µg/mL] | MIC [8, 21] [µg/mL] | MIC [9, 22] [µg/mL] | MIC (Aspergillus niger (An)) [µg/mL] | other results
COC(=O)c1ccc2nc3c(nc2c1)SC(C#N)=C(C#N)S3 [I, 7-carbomethoxy-1,4-dithiino-(2,3-b)-quinoxaline-2,3-dicarbonitrile] | < 10 | < 10 | < 10 | < 10 | 50 (≈ 153 µM) | 25 (≈ 76.6 µM) | 100 (≈ 306 µM) | 25 (≈ 76.6 µM) | > 500 | 500 (≈ 1530 µM) | > 500 | > 500 | > 500 | < 10 | > 500 | > 500 | 500 (≈ 1530 µM) | > 500 | > 500 | < 10 | MIC (Proteus vulgaris (Pv); pH 6.8, nutrient agar, 30° C., 48 hours, read-out: Minimum Inhibitory Concentration, Pv): 100 µg/mL (≈ 306 µM); MIC ([7]; pH 6.8, nutrient agar, 30° C., 48 hours, read-out: Minimum Inhibitory Concentration, Sc): 100 µg/mL (≈ 306 µM); MIC (Escherichia coli (Ec); pH 6.8, nutrient agar, 30° C., 48 hours, read-out: Minimum Inhibitory Concentration, Ec): 100 µg/mL (≈ 306 µM); MIC ([9]; 48 h, pH 6.8, read-out: Minimum Inhibitory Concentration, Kp): 50 µg/mL (≈ 153 µM); MIC (Fusarium oxysporum (Fo); [14]): < 10 µg/mL
N#CC(C#N)=C1Sc2nc3ccc(C(=O)c4ccccc4)cc3nc2S1 [W, 6-benzoyl-1,3-dithiolo-(4,5-b)-quinoxaline-2-ylidene-propanedinitrile] | 500 (≈ 1340 µM) | > 500 | > 500 |  |  | > 500 |  | > 500 | > 500 | > 500 | > 500 | > 500 | > 500 | > 500 | > 500 | > 500 | > 500 | > 500 | > 500 | > 500 | MIC (Bacillus subtilis (Bs); 48 h, pH 6.8, read-out: Minimum Inhibitory Concentration, Bs): > 500 µg/mL; MIC (Bacillus subtilis (Bs); 48 h, pH 8.2, read-out: Minimum Inhibitory Concentration, Bs): > 500 µg/mL; MIC ([4]; 48 h, pH 8.2, read-out: Minimum Inhibitory Concentration, Sa): > 500 µg/mL; MIC (Proteus vulgaris (Pv); [23]): > 500 µg/mL; MIC [7, 24]: > 500 µg/mL; MIC (Escherichia coli (Ec); [25]): > 500 µg/mL; MIC [9, 26]: > 500 µg/mL; MIC (Fusarium oxysporum (Fo); [14]): > 500 µg/mL
N#CC1=C(C#N)Sc2nc3cc(C#N)ccc3nc2S1 [H, 7-cyano-1,4-dithiino-(2,3-b)-quinoxaline-2,3-dicarbonitrile] | < 10 | < 10 | < 10 | < 10 | 50 (≈ 170 µM) | 25 (≈ 85.2 µM) | 50 (≈ 170 µM) |  | > 500 | > 500 | > 500 | > 500 | > 500 | 25 (≈ 85.2 µM) | > 500 | > 500 | > 500 | > 500 | > 500 | 25 (≈ 85.2 µM) | MIC (Trichoderma viride (Tv); 72 h): 100 µg/mL (≈ 341 µM); MIC (Proteus vulgaris (Pv); [23]): 500 µg/mL (≈ 1700 µM); MIC [7, 24]: > 500 µg/mL; MIC (Escherichia coli (Ec); [25]): > 500 µg/mL; MIC [9, 26]: 500 µg/mL (≈ 1700 µM); MIC (Fusarium oxysporum (Fo); 72 h): 50 µg/mL (≈ 170 µM)
